How the values were obtained:
Type in all cases: in vivo, cattle
[1] = test system: plasma LH; assay: Example II: plasma LH and LH pulsatility during 3-day letrozole regimen
Description: (§1) Four days after follicular ablation, heifers were given 500 μg of cloprostenol (PGF, Estrumate, Schering-Plough Animal Health, Pointe-Claire, QC, Canada) intramuscularly (im) to induce regression of the CL and to synchronize ovulation. The experiment was performed in two replicates (n=20-27 per replicate) and each heifer was used only once. In replicate 1, heifers were assigned randomly at the time of ovulation (Day 0) to the following groups and given a 3-day regimen of letrozole from Days 1 to 3 (n=5), Days 3 to 5 (n=5), Days 5 to 7 (n=5), or no treatment (control group, n=5). In replicate 2, heifers were similarly assigned to groups and given letrozole from Days 1 to 3, (n=5), Days 3 to 5 (n=4), or Days 5 to 7 (n=4), but untreated control heifers were arranged in three sub-groups to serve as contemporaneous controls for each letrozole-group during intensive blood sampling periods (i.e., control Days 1 to 3, n=4; control Days 3 to 5, n=4; and control Days 5 to 7, n=5). For practical purposes, the total dose of letrozole (250 μg/kg) was calculated on the basis of an average weight of 350 kg for all heifers and administered intravenously in daily divided doses over 3 days (85 μg/kg per day). For intravenous injection, letrozole was prepared in 95% ethanol to a final concentration of 5 mg/ml, resulting in an injection volume of 6 mL/day.
Blood samples were collected by jugular or coccygeal venipuncture into 10 ml heparinised, vacuum tubes (Vacutainer tubes; Becton Dickinson Vacutainer Systems, Franklin Lakes, N.J., USA). Blood samples were collected daily from pre-treatment ovulation to post-treatment ovulation. In replicate 1, additional samples were collected from letrozole-treated heifers every 12 hours from the beginning of treatment to first wave emergence. In replicate 2, heifers were sampled at 15 minute intervals for the first 8 hours after the second dose of letrozole (i.e., second day of treatment) using an indwelling jugular catheter, as described previously. Blood samples were centrifuged at 1500×g for 20 minutes, and plasma was separated and stored in plastic tubes at −20° C.
Plasma LH concentrations were determined in duplicate using a double-antibody radioimmunoassay (NIDDK-bLH4). The minimum and maximum values along the standard curve were 0.06 and 8 ng/mL, respectively. The intra- and inter-assay coefficients of variation were 7.9% and 2.5%, respectively, for low reference samples (mean, 0.85 ng/mL) and 8.6% and 9.5%, respectively, for high reference samples (mean, 2.5 ng/mL).
Statistical analyses were done using the Statistical Analysis System software package (SAS Learning Edition 9.1, 2006; SAS Institute Inc., Cary, N.C., USA). Time-series hormone data, plasma letrozole concentration, and follicular and luteal diameter profiles were analysed by repeated measures, using the PROC MIXED procedure. The main effects were treatment, time, and their interactions. […] Single point measurements (interwave and interovulatory intervals, interval from ovulation to onset of CL regression, mean and basal LH concentrations, LH pulse amplitude and frequency, and pharmacokinetic parameters for letrozole) were analysed by analysis of variance. […] If significant main effects or interactions (P≦0.05) were detected, Tukey's post-hoc test was used for multiple comparisons.
Due to individual variability in circulating hormone concentrations among heifers, and because our objective was to determine the effect of treatment within individuals, data on LH and FSH concentrations were transformed to a percentage of the mean concentration of the two first data points collected (Days 0 and 1) for each individual heifer before analysis of variance for repeated measures. For the same reasons, estradiol concentrations were transformed to a percentage of the mean concentration of two pre-treatment data points ([…] each individual heifer before statistical analysis. […]

[2] = test system: plasma FSH; assay: Example II: plasma FSH during 3-day letrozole regimen; conditions: 3-day regimen
Description: as §1, with “For intravenous injection, letrozole was prepared in 95% ethanol to a final concentration of 5 mg/ml, resulting in an injection volume of 6 mL/day.” left out
Plasma FSH concentrations were determined in duplicate using a double-antibody radioimmunoassay using NIDDK-anti-oFSH-1 primary antibody and expressed as USDA bovine FSH-I1 units. […]

[3] = test system: plasma estradiol; assay: Example II: plasma estradiol during 3-day letrozole regimen; conditions: 3-day regimen, regardless of stage of follicular development
Description: Plasma estradiol concentrations were determined in duplicate by enzyme-linked immunosorbent assay (Cayman Chemical Company, Ann Arbor, Mich., USA). In this competitive ELISA, plasma steroid competes with acetylcholinesterase labelled steroid for the binding site on the polyclonal rabbit anti-steroid antibody. The antiserum to estradiol was reported to cross-react with estradiol-3-glucoronide (14%), estrone (12%), and estriol (0.3%). For all other steroids cross-reactivities were reported as <0.1%. The minimum and maximum values along the standard curve were 6.6 and 4000 pg/well, respectively. The intra- and inter-assay coefficients of variation for reference samples assayed in duplicate were 11.7% and 12.7, respectively.
For the same reasons, estradiol concentrations were transformed to a percentage of the mean concentration of two pre-treatment data points (i.e. for each individual heifer before statistical analysis.

[4] = treatment period Day 1-3, 15 min samples over 8 hours
[5] = treatment period Day 3-5, 15 min samples over 8 hours
[6] = treatment period Day 5-7, 15 min samples over 8 hours

N#Cc1ccc(C(c2ccc(C#N)cc2)n2cncn2)cc1 [Letrozole, letrozole]
plasma LH concentrations among groups, daily samples ([1]; 3-day regimen): No significant differences
plasma LH, percent of the mean of Days 0 and 1 ([1]; AM samples collected during treatment): 93.6±14.85%
Basal LH [1, 4]: 0.38 ± 0.11 ng/mL
LH pulse amplitude [1, 4]: 0.46 ± 0.15 ng/mL
LH pulse frequency [1, 4]: 0.95 pulses/h
Mean LH ([1]; treatment period Day 1-3, 15 min samples over 8 hours after second dose): 0.52 ± 0.15 ng/mL
Basal LH [1, 5]: 0.08 ± 0.03 ng/mL
LH pulse amplitude [1, 5]: 0.40 ± 0.18 ng/mL
LH pulse frequency [1, 5]: 0.53 pulses/h
Mean LH [1, 5]: 0.15 ± 0.5 ng/mL
Basal LH [1, 6]: 0.13 ± 0.02 ng/mL
LH pulse amplitude [1, 6]: 0.88 ± 0.37 ng/mL
LH pulse frequency [1, 6]: 0.41 pulses/h
Mean LH [1, 6]: 0.21 ± 0.04 ng/mL
plasma FSH levels compared with respective controls [2]: No differences
plasma estradiol concentrations compared to control heifers [3]: not different

Reference: patent publication US9144569B2, “Methods of administering an aromatase inhibitor, prostaglandin and GnRH for regulating ovulation in cattle” (UNIVERSITY OF SASKATCHEWAN, priority 2010, dated 2015)
